Assay results from paper PMC5473928 (Scientific Reports, 2017).
Where two headings read alike, the source gives them in different places.

How the values were obtained:
KRasWT = molecular target: T1, KRasWT (Homo sapiens, UniProt P01116); assay: Stopped-flow competition binding of nucleotides to nucleotide-free KRas (mantdGDP or mantdGDPβMe fluorescence, global fit); details: for koff: read-out: dissociation rate constant (koff)
T1 construct: His6 (cleaved yes); made in house
Method: A method which leads to estimates of the kinetic parameters as well as the affinity involves stopped-flow measurements of association of fluorescent nucleotides with nucleotide-free Ras followed by competiton between fluorescent and non-fluorescent nucleotides to obtain the parameters for the non-labelled substances.
(§1) All stopped-flow experiments were performed in a SX-20 stopped-flow apparatus (Applied Photophysics) at 25 °C in a buffer consisting of 20 mM Hepes pH 7.5, 100 mM NaCl, 1 mM TCEP, 2 mM MgCl2 (excitation with 360 nm LED, emission detection with a 420 nm cut-off filter).

KRasG12C [1] = molecular target: T2, KRasG12C (Homo sapiens, UniProt P01116, C118S/C51S/C80L/G12C); assay: ESI-MS monitoring of the covalent reaction with KRasG12C; assay type: biochemical
T2 construct: KRas1–169 G12C C51S C80L C118S were cloned into a modified pET19 expression vector; His6 (cleaved yes); made in house
Method: An independent confirmation of the rapid covalent reaction of SML-8-73-1 with KRasG12C was obtained by mixing the compound with the nucleotide-free protein followed by ESI-MS.
In order to test the predictions arising from the simulations in the case of SML-8-73-1, we have performed a number of semi-quantitative experiments using mass spectrometric analysis.
To allow comparison with published work, further experiments were performed at 37°. In the first experiment, the conditions described by Hunter et al.[21] were duplicated (15 µM KRasG12C, 150 µM SML-8-73-1, no added Mg^2+ ions).
In this case, there was very rapid generation of the covalent adduct, so that the first time of measurement (designated as time zero in the figure, but in practice after ca. 10 min), the reaction was practically complete (Fig. S3F).
The covalent reaction of SML-8-73-1 with KRasG12C was monitored by mass spectrometry. 200 µM SML-8-73-1 was added to the nucleotide-free protein (50 µM), 5 mM dithioerythritol (DTE) was added after ~20 s and the extent of modification monitored by ESI-MS.
For the measurements described in Fig. S3, KRasG12C and SML 8-73-1 were incubated in 20 mM HEPES pH 7.5 and 50 mM NaCl. The conditions are as mentioned in the figure. For each time point, the reaction was stopped by the addition of DTT (to 5 mM final concentration) and acetonitrile (to 25%).

KRasG12C [2] = molecular target: T2, KRasG12C; assay: Stopped-flow competition binding and covalent reaction with nucleotide-free KRasG12C (mantdGDPβMe fluorescence, global fit); details: 25 °C
Method: as §1

KRasG12C [3] = molecular target: T2, KRasG12C; details: cited from earlier work
HRas = system: HRas; set-up: method as in PMID 2200519; details: cited from earlier work; for dissociation rate constant (koff): value reported for HRas; for Kd: weakly bound competitor of mantdGDP
KRas / SOS564–1049 = molecular target: T3, KRas / SOS564–1049 (Homo sapiens, UniProt P01116); assay: SOS catalyzed nucleotide exchange on KRas:nucleotide complexes, stopped-flow, excess SOS (Fig. 3A); assay type: biochemical; details: not reached in SOS range used; from numerical simulations
T3 construct: His6 (cleaved yes); made in house
Method: as §1

KRas = system: KRas; set-up: method as in PMID 8419371; details: Mg^2+ reduced from a physiologically realistic value to 0.1 µM; cited from earlier work
HRasF28L = system: HRasF28L; set-up: method as in PMID 1894650; details: HRasF28L mutant; cited from earlier work
[4] = KRasWT, 25 °C, global fit of stopped-flow competition, read-out: association rate constant (kon)
[5] = KRasWT, 25 °C, global fit of stopped-flow competition
[6] = read-out: association rate constant (kon)

In the case of Nc1nc2c(ncn2[C@@H]2O[C@H](COP(=O)(O)OP(=O)(O)OCCNC(=O)CCl)[C@@H](O)[C@H]2O)c(=O)[nH]1 [SML-8-73-1], the kon (KRasWT; [4]) is reported as 7.4e+06 M⁻¹ s⁻¹, the koff (KRasWT; [5]) is reported as 1 s⁻¹ and the “period over which covalent modification occurred” value (KRasG12C [1]; 200 µM SML-8-73-1, 50 µM nucleotide-free KRasG12C, DTE quench) is reported as “tens of seconds to minutes”. For the same molecule, the “extent of covalent reaction after 52 h” value (KRasG12C [1]; 25°, simulation conditions (20 µM inhibitor, 400 µM GTP, 40 µM GDP) but 10 µM KRas, Fig. S3A) was “almost no reaction”, the “time to 50% reaction” value (KRasG12C [1]; 37°, 15 µM KRasG12C, 150 µM SML-8-73-1, no added Mg^2+ (ca. 20 µM free), Fig. S3B) was 1 to 2 h and the “extent of covalent reaction after 51 h” value (KRasG12C [1]; 37°, 1.5 mM each of GTP and GTP and 3 mM Mg^2+, Fig. S3E) was “a few percent”. It also gave a kon (KRasG12C [2]; [6]) of 4.1e+06 M⁻¹ s⁻¹, a koff (KRasG12C [2]; read-out: dissociation rate constant (koff)) of 0.9 s⁻¹ and a kinact (KRasG12C [2]; read-out: rate constant for the covalent reaction (kinact)) of 0.1 s⁻¹. For the same molecule, the “rate constant for the covalent reaction” value (KRasG12C [3]) was 0.014 s⁻¹ and the Kd (KRasG12C [3]; read-out: Kd for the reversible binding step) was 9 nM.
Nc1nc2c(ncn2COCCOP(=O)(O)OP(=O)(O)OP(=O)(O)O)c(=O)[nH]1 [acyclovir triphosphate] showed a kon (KRasWT; [4]) of 1.29e+07 M⁻¹ s⁻¹, a koff (KRasWT; [5]) of 0.1 s⁻¹ and a Kd (KRasWT; read-out: Kd) of 8.5 nM.
For CNc1ccccc1C(=O)O[C@H]1C[C@H](n2cnc3c(=O)[nH]c(N)nc32)O[C@@H]1COP(=O)(O)OP(=O)(O)O [mantdGDP], the “association rate constant (kon)” value (KRasWT; [5]) is listed as 3.2e+06 M⁻¹ s⁻¹ and the “dissociation rate constant (koff)” value (HRas) is listed as “ca. 10^−4 s^−1”.
In the case of CNc1ccccc1C(=O)O[C@H]1C[C@H](n2cnc3c(=O)[nH]c(N)nc32)O[C@@H]1COP(=O)(O)OP(=O)(O)OC [mantdGDPβMe], the “association rate constant (kon)” value (KRasWT; [5]) is reported as 4.9e+06 M⁻¹ s⁻¹, the “dissociation rate constant (koff)” value (KRasWT; [5]) is reported as 0.4 s⁻¹ and the “maximal (limiting) rate constant for nucleotide release by SOS” value (KRas / SOS564–1049) is reported as over 5 s⁻¹.
With COP(=O)(O)OP(=O)(O)OCC1OC(n2cnc3c(=O)[nH]c(N)nc32)C(O)C1O (stereo not drawn) [GDPβMe, β-methyl ester of GDP] the Kd (KRasWT) was 130 nM, the “inhibition of mantdGDP binding at equilibrium” value (KRasWT; 3x excess of GDPβMe over mantdGDP) was “no significant inhibition” and the “affinity of KRas relative to GDP” value (KRasWT; from similar kon and faster koff) was “ca. 4 orders of magnitude lower”. For the same molecule, the “release rate relative to GDP” value (KRasWT; koff of GDPβMe vs koff of GDP) was “approximately 10^4 times faster”, the kon (KRasWT; [6]) was 5.8e+06 M⁻¹ s⁻¹ and the koff (KRasWT) was 0.8 s⁻¹.
In the case of Nc1nc2c(ncn2C2OC(COP(=O)(O)OP(=O)(O)O)C(O)C2O)c(=O)[nH]1 (stereo not drawn) [GDP], the kon (KRasWT; [4]) is reported as 8.2e+06 M⁻¹ s⁻¹, the Kd (KRasWT; read-out: Kd) is reported as 0.02 nM and the kon (KRasWT; read-out: association rate constant (binding scheme, Fig. 1A)) is reported as 8.7e+06 ± 40000 M⁻¹ s⁻¹. For the same molecule, the “factor of acceleration of GDP release” value (KRas) was “more than 200”, the “dissociation rate constant (koff)” value (HRas) was “ca. 10^−4 s^−1” and the “factor of increase of the rate constant for GDP dissociation” value (HRasF28L) was “ca. 140”.
For Nc1nc2c(ncn2[C@@H]2O[C@H](COP(=O)(O)O)[C@@H](O)[C@H]2O)c(=O)[nH]1 [GMP], the Kd (HRas) is listed as 29000 nM.
For Nc1nc2c(ncn2[C@@H]2O[C@H](CO)[C@@H](O)[C@H]2O)c(=O)[nH]1 [guanosine], the Kd (HRas) is given as 153000 nM.
